Experiments:
hSTING-WT (R232) = molecular target: T1, hSTING-WT (R232) (Homo sapiens, UniProt Q86WV6, H232R); experiment: STING activation, THP1-Dual IRF3 reporter assay, hSTING-R232 cells; assay type: cell-based; details: IRF3 luciferase reporter, 24 hours, read-out: STING activity using hSTING-R232 cells EC50
T1 construct: host or cells: THP1-Dual cells (human monocytes) with knocked-in hSTING R232
Description: To assess potency of STING agonist compounds described herein, THP1-Dual™ Cells (NF—KB-SEAP and IRF-Lucia luciferase reporter monocytes, InvivoGen) were used. The reporter cells were knocked-in either of hSTING-WT (R232, #thpd-r232), HAQ variant (#thpd-nfis), or H232 variant (#thpd-h232). All cells were cultured at 37° C. in a humidified incubator at 5% CO2 and maintained in RPMI 1640 medium (Gibco, #22400097) supplemented with 10% heat-inactivated FBS and 1×Pen-Strep (Gibco, #15140122). To measure STING agonist-mediated IRF3 activity, the cells (9.0×10^4 cells per well) were seeded in a flat-bottomed 96-well plate. The next day, the cells were treated with compounds in a serial dilution for 24 hours. Subsequently, 20 μL of the cell culture supernatant and 50 μL of the QUANTI-Luc™ reagent (InvivoGen, #rep-qlc) were mixed in a 96-well white plate and then, luciferase activity was measured using an EnVision Xcite multilabel reader. The data were analyzed using Prism8 software (4-parameter).
The potency of STING agonist compounds was evaluated by the activation of Type I Interferon pathway using THP-1 IRF3 reporter assay.

[1] = system: human peripheral blood mononuclear cells (PBMCs); experiment: Cytokine production induction in PBMCs (ELISA); assay type: cell-based; details: 1 μM, 24 hours; for human CXCL-10 production: FIG. 1A; for human IFNα production: FIG. 1B
Description: The cells (2.0×10^4 cells per well) were seeded in a flat-bottomed 96-well plate. PBMCs were stimulated with STING agonist compounds described herein (Compound 214, 221, and 230) at 1 μM for 24 hours. BxPC-3 and MDA-MB-468 tumor cells were treated with STING agonist compounds described herein (Compound 313) in a 5-fold serial dilution from […] for 24 hours, respectively. The levels of cytokines in the culture supernatants were measured using the ELISA kit (R&D systems, #DY266, #DY9345-05) according to the manufacture's instruction.
Briefly, each well of a 96-well plate was coated with 100 μL of the diluted capture antibody in PBS and incubated overnight at room temperature (RT). Next day, each well was washed with wash buffer (0.05% Tween 20 in PBS) three times using an auto-washer. The plates were blocked with 300 μL of Reagent Diluent (1% BSA in PBS) for 1 hour at RT. The aspiration/wash step was repeated. 100 μL of diluted samples or standards in Reagent Diluent was added to each well and incubated for 2 hours at RT. After wash, 100 μL of the Detection Antibody pre-diluted in Reagent Diluent was added into each well and incubated for 2 hours at RT. After wash, 100 μL of the working diluted […] in Reagent Diluent was added and incubated under subdued light conditions for 20 minutes, followed by repeated aspiration/wash. 100 μL of substrate solution (mixed H2O2 and Tetramethylbenzidine in a 1:1 ratio) was added and incubated for 20 minutes at RT in avoiding direct light exposure. The reaction was stopped by adding 50 μL of stop solution (2N H2SO4). The optical density was determined using a microplate reader (Molecular Devices VersaMax Microplate Reader). The optical density (O.D.) of each well was normalized by subtracting the reading at 570 nm from the reading at 450 nm.

[2] = Plasma pharmacokinetics in naive Balb/C mouse, LC-MS/MS; assay type: in vivo; details: 1.5 mg/kg single IV; for AUC∞, norm / Cmax, norm: n = 3, dose-normalised; for AUC(0-inf) / AUC(0-t) / C0 / Cmax / clearance / half-life / Vd: female; for AUC(0-inf) / AUC(0-t) / C0 / Cmax: n = 3, plasma; for clearance / half-life / Vd: plasma; for clearance / half-life: n = 3; for Vd: n = 3, read-out: VSS
Description: For in vivo evaluation of STING agonist compounds described herein in naïve Balb/C mouse, single doses of STING agonist compounds were given at 1.5 mg/kg intravenously into female BALB/c mice (Orientbio, South Korea) at 6-8 weeks of age. Pharmacokinetics were studied following injection of the STING agonist compounds into Balb/C mice. Plasma samples were taken at various time points and stored frozen for analysis. The plasma concentrations of the STING agonist compounds at the indicated time points were measured using a LC-MS/MS analysis method.
Briefly, 250 μL of acetonitrile (ACN) solution was added in both 50 μL of sample and 50 μL of plasma containing 10 nM Dextromethorphan (internal standard), and the solutions were mixed vigorously using a vortex mixer for 5 minutes. The samples were then spun down at 14,000 rpm, 4° C. for 5 minutes. 100 μL of supernatants were combined with 100 μL of mobile phase A (0.1% formic acid in water with 5% ACN) and mixed thoroughly. The samples were measured for the STING agonist compounds using a LC-MS/MS (Nexera LC40 (SHIMADZU) and QTRAP4500 (SCIEX)).

human STING = molecular target: T2, human STING (Homo sapiens, UniProt Q86WV6, H232R); experiment: Direct STING binding, HUMAN STING WT BINDING KIT (Cisbio); details: direct binding to human STING WT protein in vitro; read-out: Binding potency EC50
T2 construct: purchased Cisbio 64BDSTGPEG
T2 sequence (Q86WV6 whole entry H232R): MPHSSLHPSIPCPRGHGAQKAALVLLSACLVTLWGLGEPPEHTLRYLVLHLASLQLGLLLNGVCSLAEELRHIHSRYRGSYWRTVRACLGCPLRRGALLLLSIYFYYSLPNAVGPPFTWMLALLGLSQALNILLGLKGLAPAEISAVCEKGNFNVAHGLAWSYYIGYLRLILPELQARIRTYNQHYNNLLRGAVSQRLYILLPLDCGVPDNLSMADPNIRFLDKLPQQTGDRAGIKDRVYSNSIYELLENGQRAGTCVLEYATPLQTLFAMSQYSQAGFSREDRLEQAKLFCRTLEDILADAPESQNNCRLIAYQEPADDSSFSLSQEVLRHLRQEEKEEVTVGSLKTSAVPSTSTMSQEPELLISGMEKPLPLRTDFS
Description: Additionally, for analysis of direct binding potency of STING agonist compounds described herein to human STING, HUMAN STING WT BINDING KIT (Cisbio, #64BDSTGPEG) was used according to the manufacture's instruction.

[3] = system: human PBMCs (CD8+ T cells and NK cells); experiment: CD8+ T and NK cell activation in PBMCs by flow cytometry; assay type: cell-based; details: for expansion of activated CD8+ T cells / expansion of activated NK cells: 3 μM, 24 hours; for expansion of activated CD8+ T cells: FIG. 5A; for expansion of activated NK cells: FIG. 5B
Description: To test the effect of STING agonist compounds described herein in the activation of innate and adaptive immune cells, flow cytometry (FACS) was performed. Human THP-1 cells (Korean Cell Line Bank, #40202) and PBMCs were seeded at 1.2×10^5 cells per well in a round-bottomed 96-well plate in RPMI 1640 medium (Gibco, #22400097) supplemented with 10% heat-inactivated FBS and 1× Antibiotic-Antimycotic (Gibco, #15240062) and rested for 24 hours at 37° C. The cells were stimulated with the STING agonist compounds as described; For THP-1 stimulation, the cells were treated with the STING agonist compound (Compound 313) in a 5-fold serial dilution from 1 μM for 48 hours. The induction of cell surface activation markers, CD86 (co-stimulatory molecule) and HLA-DR (MHC-class II), was measured by flow cytometry. […] For flow cytometry analysis, the stimulated cells were centrifuged at 300 g for 5 minutes at 4° C., and then resuspended in FACS buffer (2% FBS, 2 mM EDTA in PBS). After staining cells with human Fc blocker (BD Biosciences, #564220) in FACS buffer for 10 minutes at 4° C. Subsequently, the cells were stained with fluorescence-conjugated antibodies against CD8, CD3, CD56, and CD69 for CD8 T and NK cells activation and against CD86 and MHC-II for THP-1 naïve cells activation for 40 minutes at 4° C. After washing three times with FACS buffer, the cells were resuspended in FACS buffer and analyzed by FACSlyric (BD bioscience). The data were analyzed with Flowjo 9.0 software (BD bioscience).
After treating human PBMCs with the STING agonist compounds, it was analyzed the activation of CD8^+ T cells and NK cells by measuring CD69, an activation marker, on their cell surface by flow cytometry.

[4] = Normal cell cytotoxicity in PBMCs, CellTiter-Glo; assay type: cell-based; details: human, read-out: In vitro cell cytotoxicity in PBMCs CC50
Description: PBMCs were also purchased from […]™ (#700025.2). The cells (8.0×10^4 cells per well) were seeded in a flat-bottomed 96-well plate in RPMI 1640 medium (Gibco, #22400097) with 10% heat-inactivated FBS and 1× Antibiotic-Antimycotic (Gibco, #15240062) and rested for 24 hours at 37° C. […] After 72 hours, the cell viability was measured using CellTiter-Glo Luminescent Cell Viability Assay (Promega, #G7573) according to the manufacture's instruction. The signal was detected using an EnVision Xcite multilabel reader and data were analyzed using GraphPad Prism 8 software.
To verify the effect of the STING agonist compounds in normal cell cytotoxicity, the PBMCs were treated with the STING agonist compounds for 3 days and measured the percentage of cell death.

[5] = Normal cell cytotoxicity in CD34+ HSC, CellTiter-Glo; assay type: cell-based; details: human, CD34+ hematopoietic stem cells (HSCs), read-out: In vitro cell cytotoxicity in CD34+ HSC CC50
Description: The CD34^+ hematopoietic stem cells (HSCs) were purchased from […]™ (#70002.3). The cells (2×10^4 cells per well) were cultured in StemSpan™ SFEM II medium supplemented with StemSpan™ CD34+ Expansion Supplement (#02691) in a 6-well plate at 37° C. for 7 days. On day 3 or 4, an equal volume of fresh complete medium was added into the cell culture. On day 7, the cells (4×10^4 cells per well) were seeded in a 96-well white plate and rested for 24 hours in the same condition.
After 72 hours, the cell viability was measured using CellTiter-Glo Luminescent Cell Viability Assay (Promega, #G7573) according to the manufacture's instruction. The signal was detected using an EnVision Xcite multilabel reader and data were analyzed using GraphPad Prism 8 software.

T1 sequence (Q86WV6 whole entry H232R): as above

SMILES	EC50 (hSTING-WT (R232)) [nM]	human CXCL-10 production [1]	human IFNα production [1]	AUC∞, norm [2] [kg·h/L]	Cmax, norm [2] [kg/L]	AUC(0-inf) [2] [ng·h/mL]	AUC(0-t) [2] [ng·h/mL]	C0 [2] [ng/mL]	Cmax [2] [ng/mL]	clearance [2] [mL/min/kg]	half-life [2] [h]	Vd [2] [L/kg]	EC50 (human STING) [nM]	CD69 expression on CD8+ T cells ([3]; 100 nM, 48 hours, FIG. 4A)	CD69 expression on NK cells ([3]; 100 nM, 48 hours, FIG. 4B)	CC50 at 72 h [4] [nM]	CC50 at 72 h [5] [nM]	expansion of activated CD8+ T cells [3]	expansion of activated NK cells [3]
CCn1nc(C)cc1C(=O)Nc1nc2cc(C(N)=O)cc(OC)c2n1CC=CCn1c(NC(=O)c2cc(C)nn2CC)nc2cc(C(N)=O)cc(OCCCN3CCN(C(=O)OCc4ccc(OC5OC(C(=O)O)C(O)C(O)C5O)c(C(=O)NCCOC)c4)CC3=O)c21 (centres unmarked) [Compound 221]	68.3	induced cytokine production	induced cytokine production	4.53 ± 0.15	5.37 ± 0.30	6800 ± 230	6670 ± 220	9790 ± 430	8060 ± 450	3.67	1.06 ± 0.04	0.26 ± 0.01	–	–	–	–	–	–	–
CCn1nc(C)cc1C(=O)Nc1nc2cc(C(N)=O)cc(OC)c2n1C/C=C/Cn1c(NC(=O)c2cc(C)nn2CC)nc2cc(C(N)=O)cc(OCc3cccc(NC(=O)OCc4ccc(O[C@@H]5O[C@H](C(=O)O)[C@@H](O)[C@H](O)[C@H]5O)c(C(=O)NCCOC)c4)c3)c21 [Compound 230]	3.96	induced cytokine production	induced cytokine production	–	–	–	–	–	–	–	–	–	–	–	–	–	–	–	–
CCn1nc(C)cc1C(=O)Nc1nc2cc(C(N)=O)cc(OC)c2n1C/C=C/Cn1c(NC(=O)c2cc(C)nn2CC)nc2cc(C(N)=O)cc(OC/C=C/Cn3cc(NC(=O)OCc4ccc(O[C@@H]5O[C@H](C(=O)O)[C@@H](O)[C@H](O)[C@H]5O)c(C(=O)NCCOCCOCCO)c4)cn3)c21 [Compound 277]	27.4	–	–	7.37 ± 0.25	4.04 ± 0.24	11100 ± 370	10500 ± 490	6530 ± 320	6060 ± 360	2.33	1.38 ± 0.19	0.27 ± 0.03	0.2	enhanced CD69 expression	enhanced CD69 expression	32.1	13.5	–	–
CCn1nc(C)cc1C(=O)Nc1nc2cc(C(N)=O)cc(OC)c2n1C/C=C/Cn1c(NC(=O)c2cc(C)nn2CC)nc2cc(C(N)=O)cc(OC/C=C/Cn3cc(NC(=O)OCc4ccc(O[C@@H]5O[C@H](C(=O)O)[C@@H](O)[C@H](O)[C@H]5O)c(C(=O)NCCOCCOCCO[C@@H]5O[C@H](C(=O)O)[C@@H](O)[C@H](O)[C@H]5O)c4)cn3)c21 [Compound 344]	11.1	–	–	–	–	–	–	–	–	–	–	–	0.24	–	–	–	–	enhanced expansion	enhanced expansion
CCn1nc(C)cc1C(=O)Nc1nc2cc(C(N)=O)cc(OC/C=C/Cn3cc(NC(=O)OCc4ccc(O[C@@H]5O[C@H](C(=O)O)[C@@H](O)[C@H](O)[C@H]5O)c(C(=O)NCCOCCOCCN5CCOCC5)c4)cn3)c2n1C/C=C/Cn1c(NC(=O)c2cc(C)nn2CC)nc2cc(C(N)=O)cc(OCCCC(=O)O)c21 [Compound 361]	35.8	–	–	–	–	–	–	–	–	–	–	–	0.1	–	–	–	–	enhanced expansion	enhanced expansion
